No end group written: not given here.
System: endothelial cells (HUVECs)
Experiment: Binding of TAMRA-labelled γPNA to cells (fluorescence intensity)
Format: cell-based, human
Settings: 30 minutes incubation, fluorescence intensity normalized to protein
Method: FIGS. 11A and 11B. […] The cells were incubated with TAMRA-e-γP-122-I or TAMRA-γP-122-I for 30 minutes, washed three times, lysed, and the fluorescence intensity was measured and normalized to protein. RFI: Rhodamine (5-TAMRA) fluorescence intensity (561/600).
The inventors generated an endothelial cell targeting version of the disclosed γ-PNA inhibitors of miR-122 by fusing the peptide VHPK (SEQ ID NO: 4) to the γ-PNAs of the instant disclosure (“VHPK-γ-PNA fusion”). VHPK binds to vascular cell adhesion molecule 1 (VCAM1) which is highly expressed on the surface of endothelial cells.

Substance: TAMRA-e-γP-122-I: endothelial cell targeting γ-PNA miR-122 inhibitor fused to peptide VHPK (SEQ ID NO: 4), TAMRA-labelled (VHPKQHRQQSKQC; also: fused to γ-PNA miR-122 inhibitor, TAMRA-labelled, place not given here)
- binding to endothelial cells (HUVECs) versus untagged γ-PNA: Increased binding
- binding to endothelial cells versus HEK-293 cells: increased binding to endothelial cells as compared to human embryonic kidney (HEK-293) cells
- binding to endothelial cells (HUVECs) versus untagged γ-PNA (listed as VHPK-γ-PNA fusion): increased binding

From patent publication US12516087B2, “Methods and compositions comprising therapeutic gamma peptide nucleic acid-based molecules” (UNIVERSITY OF IOWA RESEARCH FOUNDATION, priority 2022, dated 2026)
